Results: patent US11458132B2, “Quinolin-2(1H)-one inhibitors of Late SV40 Factor” (TRUSTEES OF BOSTON UNIVERSITY, priority 2020, dated 2022)

Assays:
[1] = tested on: RPE cells; assay: Microtubule sedimentation assay; assay type: cell-based
Method: (§1) Cell lysate preparation: For microtubule sedimentation assays, cells were treated as indicated in the figure legends, washed with PBS and incubated in 250 μl of microtubule sedimentation assay lysis buffer (100 mM PIPES pH 6.8, 2 M glycerol, 2 mM EGTA, 5 mM MgCl2, 0.1% Triton X-100) supplemented with 1 μM taxol, protease inhibitor cocktail (1:200, Abcam, ab201111) and phosphatase inhibitor cocktail (1:100, Abcam, ab201115) for 20 minutes at 37° C. Two hundred μl of scraped lysate was centrifuged at 21,000×g for 10 minutes at room temperature. Supernatants were saved as soluble fractions. Pellets were resuspended in 200 μl RIPA buffer (50 mM Tris HCl pH 8.0, 150 mM NaCl, 1% IGEPAL CA630, 0.05% deoxycholic acid) supplemented with 1.05% SDS, protease inhibitor cocktail (1:200) and phosphatase inhibitor cocktail (1:100) and incubated at 100° C. for 15 minutes. Pellet suspensions were centrifuged as before and supernatants were saved as pellet fractions.
(§2) Gel electrophoresis and immunoblotting: Microtubule sedimentation fractions and MLC2 analysis samples were separated by electrophoresis through tris-glycine and tricine polyacrylamide gels, respectively, which were transferred to PVDF membranes. Membranes with microtubule sedimentation fractions and MLC2 analysis samples were blocked in 5% milk in TBST and in 5% BSA in TBST, respectively. After overnight incubation with primary antibody at 4° C., the membranes were washed and incubated with secondary antibody for 1 hour at room temperature. Primary antibodies included anti-α-tubulin (1:2,000, Thermo Fisher Scientific, PA529444), anti-acetylated tubulin (1:1,000, Sigma-Aldrich, T7451), anti-phospho MYL9 (1:200, Thermo Fisher Scientific, PA517727), and anti-β-actin (1:5,000, Sigma-Aldrich, A1978). Secondary antibodies included Goat anti-Rabbit HRP (Thermo Fisher Scientific, 31460; 1:10,000 for anti-α-tubulin; 1:5,000 for anti-phospho MYL9), and Goat anti-Mouse HRP (Thermo Fisher Scientific, 62-6520; 1:5,000 for anti-acetylated tubulin; 1:10,000-1:20,000 for anti-β-actin). Membranes were placed into Pierce™ ECL Western Blotting Substrate (Thermo Fisher Scientific, 32106). Autoradiography film was exposed to each membrane for various times to ensure acquisition of non-saturated exposures. Band intensities were quantified from scanned films by densitometry using ImageJ.

[2] = tested on: FH-B cells; assay: Microtubule sedimentation assay; assay type: cell-based, human
Method: as §1, §2

[3] = Plasma protein binding (PPB), human; assay type: in vitro ADME
[4] = tested on: Wnt signaling in HCT-116 cells; assay: Wnt signaling assay (β-catenin-responsive luciferase reporter); assay type: cell-based; conditions: overnight
Method: Wnt signaling assay: The CRC cells stably expressing β-catenin-responsive promoter tethered to a luciferase reporter (pBARLS) or a mutant construct (pfuBARLS), as described previously, were seeded in 96-well plates. After 48 h of transfection, luciferase assays was performed using the Dual-Luciferase Kit (Promega) and normalized using protein content determined by the Bradford assay (Bio-Rad) as described previously^26-28.

[5] = tested on: MC38 cells; assay: Syngeneic MC38 xenograft model in C57BL/6 mice; assay type: in vivo
From the text: Syngeneic and allogeneic xenograft models: We used 8-12 weeks-old athymic female mice for the allogeneic xenograft model and C57BL/6 mice for a syngeneic xenograft model, as described previously^26,27. All the mice were obtained from The Jackson Laboratory and housed at Boston University Medical Center based on the approval from the Institutional Animal Care and Use Committee. Each mouse was implanted subcutaneously on the dorsal surface and was monitored for tumor growth as measured with a VWR Digital Caliper. The tumor volume was calculated twice a week using the equation: length×width×height.
The mice were randomly separated into two groups once tumor volumes reached 100 mm^3. The FQI2-34 was suspended in a mixture of ethanol and DMSO. The mixture was agitated until the compound had completely dissolved. This solution was further diluted in 20% PEG 400 and water to give a final concentration of 2 mg/ml. FQI2-34 or vehicle was injected intraperitoneally daily at 5 mg/kg for 5 days, followed by a break for 2 days. After 21 days, both groups of mice were sacrificed, and the tumors were harvested.
Cell culture and other reagents: HT-29 cells were obtained from ATCC and grown in the Roswell Park Memorial Institute (RPMI) medium supplemented with 10% FBS and penicillin and streptomycin. Cells were injected with the growth-factor poor Matrigel (Millipore, catalogue number DLW354263) using a 23-gauge needle for a total volume of 200 microliters. The MC38 cell line was obtained from ATCC and grown in RPMI medium supplemented with 10% FBS and penicillin and streptomycin.
IHC was performed on the paraffin-embedded tumors as described previously^26-28. The manufacturer's protocol was used along with reagents from the Abcam Mouse and Rabbit Specific HRP/DAB IHC Detection Kit—Micro-polymer (ab236466). Primary antibodies and their dilutions used to detect the respective proteins were: Axin2 (Abcam, #ab32197, 1:100), β-catenin (BD Biosciences, #610154, 1:100), LSF (BD Biosciences, #610818, 1:100), SOX9 (Abcam, #ab185230, 1:100), Ki-67 (Cell Signaling, #8D5, 1:100).
All images and quantification were performed using the Nikon Eclipse TE2000 Inverted Microscope with the color camera at the Boston University School of Medicine (BUSM) Imaging Core. Random high-power field (hpf) images of every tumor sample were obtained. For quantification the signal was converted to grayscale, and the number and intensity of pixels were analyzed as integrated density by using Fiji. The integrated density of all the images was normalized to its area. The images were processed in ImageJ (National Institutes of Health, Bethesda, Md.) to quantitate the expression of SOX-9, AXIN-2, and LSF. Regions of interest were drawn and the expression was measured using integrated density normalized to the surface area. The average normalized integrated image densities from multiple hpfs were used to perform the correlational analysis between expression levels of pairs of proteins.

[6] = tested on: colorectal cancer tumor; assay: Colorectal cancer tumor size and tumor tissue, FIGS. 22-24; assay type: in vivo, mouse; conditions: 15 mg/kg treatment compared with the other concentration
[7] = 4 μM FQI1 (15- and 30-minute pellets), 1 μM nocodazole or taxol 30 minutes
[8] = xenografts, immunohistochemistry

Row | Structure (SMILES) | time after addition at which a drop in pelleted tubulin is observed ([1]; 4 μM FQI1) | microtubule stability and α-tubulin acetylation in the microtubule fraction [1, 7] | time after addition at which a drop in pelleted tubulin is observed ([2]; 4 μM FQI1) | microtubule stability and α-tubulin acetylation in the microtubule fraction [2, 7] | fraction unbound [3] | Wnt activity at baseline ([4]; 0.1 μM up to 20 μM) | concentrations that suppressed Wnt activity induced by lithium chloride [4] | tumor volumes, lower than controls ([5]; day 14 and day 21) | CRC mass on H&E stain ([5]; xenografts) | Ki-67 levels [5, 8] | reduction in AXIN2 expression levels [5, 8] | reduction in SOX9 expression levels [5, 8] | reduction in number of cells with nuclear β-catenin [5, 8] | effectiveness on colorectal cancer tumor size versus time [6]
1 | CCOc1ccccc1C1CC(=O)Nc2cc3c(cc21)OCO3 (centres unmarked) [FQI1, 8-(2-ethoxyphenyl)-7,8-dihydro-[1,3]dioxolo[4,5-g]quinolin-6(5H)-one] | 1 min | increase in the amount of acetylated α-tubulin in the microtubule fraction | 1 min | increase in the amount of acetylated α-tubulin in the microtubule fraction | – | – | – | – | – | – | – | – | – | –
2 | CCOc1cc(N(C)C)ccc1-c1cc(=O)[nH]c2cc3c(cc12)OCO3 [FQI2-34, 8-(4-(dimethylamino)-2-ethoxyphenyl)-[1,3]dioxolo[4,5-g]quinolin-6(5H)-one] | – | – | – | – | 0.1 | inhibited Wnt activity in a monotonically decreasing manner | ≥ 0.1 µM | ~2 fold | substantial reduction in CRC mass | suppressed | ~2 fold | ~2 fold | 2.3 fold | not as effective
